Assay results: patent US20240116985A1, “STAPLED PEPTIDES AND METHODS THEREOF” (priority 2020, published 2024)
≈ marks a conversion by molar mass, not a printed value. Read-outs that look alike come from different tables or passages of the source.

How the values were obtained:
[1] = molecular target: T1, full-length beta-Catenin (Uniprot ID P35222) (Homo sapiens, UniProt P35222); assay: Fluorescence polarization IC50 (beta-catenin / 5FAM-TCF4 10-53 competition); assay type: binding
T1 construct: 10 nM full-length beta-Catenin (Uniprot ID P35222)
T1 sequence (P35222 1-781): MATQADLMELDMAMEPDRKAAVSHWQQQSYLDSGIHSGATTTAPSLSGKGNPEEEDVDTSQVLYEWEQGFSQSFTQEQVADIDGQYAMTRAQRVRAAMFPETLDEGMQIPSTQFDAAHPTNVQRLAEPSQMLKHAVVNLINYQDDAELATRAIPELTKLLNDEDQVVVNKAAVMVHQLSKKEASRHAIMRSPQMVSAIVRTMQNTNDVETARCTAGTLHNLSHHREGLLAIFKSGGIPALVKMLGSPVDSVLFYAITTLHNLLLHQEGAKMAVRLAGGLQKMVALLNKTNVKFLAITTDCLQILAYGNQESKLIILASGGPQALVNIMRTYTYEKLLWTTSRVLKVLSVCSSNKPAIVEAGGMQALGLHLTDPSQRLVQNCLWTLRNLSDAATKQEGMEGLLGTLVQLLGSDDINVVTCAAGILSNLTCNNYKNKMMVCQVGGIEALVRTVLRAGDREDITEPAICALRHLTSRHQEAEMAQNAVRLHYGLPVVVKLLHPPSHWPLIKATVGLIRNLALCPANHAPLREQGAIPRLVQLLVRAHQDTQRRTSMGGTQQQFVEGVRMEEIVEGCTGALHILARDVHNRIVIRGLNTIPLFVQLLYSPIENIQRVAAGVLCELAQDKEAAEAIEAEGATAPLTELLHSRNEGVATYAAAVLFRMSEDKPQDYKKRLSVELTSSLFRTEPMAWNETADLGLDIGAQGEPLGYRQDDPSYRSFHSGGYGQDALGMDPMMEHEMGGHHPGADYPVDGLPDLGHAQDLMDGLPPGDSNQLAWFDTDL

CHI Log D procedure = assay type: physicochemical; details: for CHI Log D: pH 7.4; for chromatographic logD: pH 7.4, CHI Log D
Solubility in PBS = assay type: physicochemical
Outline: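 HPLC quantitation of peptide remaining in the PBS supernatant after ultracentrifugation, referenced to a 50 μM solution in DMSO.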

[2] = fluorescence polarization, beta-catenin, read-out: FP EC50
[3] = fluorescence polarization, read-out: beta-Catenin FP IC50

SMILES | IC50 [1, 2] [nM] | IC50 ([1]; read-out: beta-Catenin FP IC50) [nM] | CHI Log D (CHI Log D procedure) | Solubility (Solubility in PBS) [µM] | IC50 ([1]; Table E2-1, read-out: beta-Catenin FP IC50) [nM] | chromatographic logD (CHI Log D procedure) | Solubility (Solubility in PBS; Solubility (uM)) [µM] | IC50 [1, 3] [nM] | IC50 ([1]; read-out: FP EC50) [nM]
CC(=O)N1CCC[C@]12CC=CCCCC1(CCCC=CCCCCCC[C@@](C)(C(=O)N[C@@H](Cc3cccc(F)c3)C(=O)N[C@@H](Cc3csc4ccccc34)C(=O)N[C@@H](CCC(N)=O)C(N)=O)NC(=O)[C@H](C)NC(=O)[C@H](Cc3ccccc3)NC(=O)[C@H](C)NC(=O)[C@H](C)NC(=O)[C@H](CC(=O)O)NC(=O)[C@H](CC(=O)O)NC1=O)NC(=O)[C@H](C)NC(=O)[C@H](CC(=O)O)NC2=O (stereo partly drawn) [I-371, Ac-PL3-Asp-Ala-B5-Asp-Asp-Ala-Ala-Phe-Ala-S8-3FF-BztA-Gln-NH2] | – | – | – | – | 1390 | 2.14 | 48 (≈ 85.8 µg/mL) | – | –
CC[C@H](C)[C@@H]1NC(=O)[C@H](CC(=O)O)NC(=O)[C@]2(CC=CCCCC3(CCCC=CCCCCCC[C@@](C)(C(=O)N[C@@H](Cc4ccccc4)C(=O)N[C@@H](Cc4csc5ccccc45)C(=O)N[C@@H](CO)C(N)=O)NC(=O)[C@H](CCC(N)=O)NC(=O)[C@H](Cc4ccccc4)NC(=O)[C@H](C)NC(=O)[C@H](C)NC(=O)[C@H](CCC(=O)O)NC(=O)[C@H](CC(=O)O)NC3=O)NC1=O)CCCN2C(C)=O (stereo partly drawn) [I-639, Ac-PL3-Asp-Ile-B5-Asp-Glu-Ala-Ala-Phe-Gln-S8-Phe-BztA-Ser-NH2] | – | – | 2.49 | 44 (≈ 81.1 µg/mL) | – | – | – | 109 | 109
CC[C@H](C)[C@@H]1NC(=O)[C@H](CC(=O)O)NC(=O)[C@]2(CC=CCCCC3(CCCC=CCCCCCC[C@@](C)(C(=O)N[C@@H](Cc4ccccc4)C(=O)N[C@@H](Cc4csc5ccccc45)C(=O)N[C@@H](CCC(N)=O)C(N)=O)NC(=O)[C@H](CCC(N)=O)NC(=O)[C@H](Cc4ccccc4)NC(=O)[C@H](C)NC(=O)[C@H](C)NC(=O)[C@H](CCCNC(N)=O)NC(=O)[C@H](CC(=O)O)NC3=O)NC1=O)CCCN2C(C)=O (stereo partly drawn) [I-605, Ac-PL3-Asp-Ile-B5-Asp-Cit-Ala-Ala-Phe-Gln-S8-Phe-BztA-Gln-NH2] | – | – | 2.617 | 10 (≈ 19.1 µg/mL) | – | – | – | 632 | 632
CC[C@H](C)[C@@H]1NC(=O)[C@H](CC(=O)O)NC(=O)[C@]2(CC=CCCCC3(CCCC=CCCCCCC[C@@](C)(C(=O)N[C@@H](Cc4ccccc4)C(=O)N[C@@H](Cc4csc5ccccc45)C(=O)N[C@@H](CCC(N)=O)C(N)=O)NC(=O)[C@H](CCC(N)=O)NC(=O)[C@H](Cc4ccccc4)NC(=O)[C@H](CC(C)C)NC(=O)[C@H](C)NC(=O)[C@H](CCC(=O)O)NC(=O)[C@H](CC(=O)O)NC3=O)NC1=O)CCCN2C(C)=O (stereo partly drawn) [I-658, Ac-PL3-Asp-Ile-B5-Asp-Glu-Ala-Leu-Phe-Gln-S8-Phe-BztA-Gln-NH2] | – | – | 2.859 | 48 (≈ 92.4 µg/mL) | – | – | – | 546 | 546
CC(=O)N1CCC[C@]12CC=CCCCC1(CCCC=CCCCCCC[C@@](C)(C(=O)N[C@@H](Cc3ccsc3)C(=O)N[C@@H](Cc3csc4ccccc34)C(=O)N[C@@H](Cc3c[nH]cn3)C(N)=O)NC(=O)[C@H](CC(N)=O)NC(=O)[C@H](Cc3ccccc3)NC(=O)[C@H](C)NC(=O)[C@H](C)NC(=O)[C@H](CN(CC(=O)O)CC(F)(F)F)NC(=O)[C@H](CC(=O)O)NC1=O)NC(=O)[C@H](CC1CCCCC1)NC(=O)[C@H](CC(=O)O)NC2=O (stereo partly drawn) [I-709, Ac-PL3-Asp-Cha-B5-Asp-TfeGA-Ala-Ala-Phe-Asn-S8-3Thi-BztA-His-NH2] | – | – | – | 10 (≈ 20.2 µg/mL) | – | 3.11 | – | 54 | –
CC[C@H](C)[C@@H]1NC(=O)[C@H](CC(=O)O)NC(=O)[C@]2(CC=CCCCC3(CCCC=CCCCCCC[C@@](C)(C(=O)N[C@@H](Cc4ccccc4)C(=O)N[C@@H](Cc4csc5ccccc45)C(=O)N[C@H](C(N)=O)C(C)C)NC(=O)[C@H](CCC(N)=O)NC(=O)[C@H](Cc4ccccc4)NC(=O)[C@H](C)NC(=O)[C@H](C)NC(=O)[C@H](CCC(=O)O)NC(=O)[C@H](CC(=O)O)NC3=O)NC1=O)CCCN2C(C)=O (stereo partly drawn) [I-645, Ac-PL3-Asp-Ile-B5-Asp-Glu-Ala-Ala-Phe-Gln-S8-Phe-BztA-Val-NH2] | – | – | 2.677 | 40 (≈ 74.2 µg/mL) | – | – | – | 395 | 395

Now from value to compound:

IC50 [1, 2] [nM] | IC50 ([1]; read-out: beta-Catenin FP IC50) [nM] | CHI Log D (CHI Log D procedure) | Solubility (Solubility in PBS) [µM] | IC50 ([1]; Table E2-1, read-out: beta-Catenin FP IC50) [nM] | chromatographic logD (CHI Log D procedure) | Solubility (Solubility in PBS; Solubility (uM)) [µM] | IC50 [1, 3] [nM] | IC50 ([1]; read-out: FP EC50) [nM] | SMILES
1050 | 1050 | 2.271 | 47 (≈ 94.7 µg/mL) | – | – | – | – | – | CC(=O)N1CCC[C@]12CC=CCCCC1(CCCC=CCCCOC(=O)N3CC[C@@](C(=O)N[C@@H](Cc4ccsc4)C(=O)N[C@@H](Cc4csc5ccccc45)C(=O)N[C@@H](CC(C)C)C(N)=O)(C3)NC(=O)[C@H](CC(N)=O)NC(=O)[C@H](Cc3ccccc3)NC(=O)[C@H](C)NC(=O)[C@H](C)NC(=O)[C@H](CN(CC(=O)O)CC(F)(F)F)NC(=O)[C@H](CC(=O)O)NC1=O)NC(=O)[C@H](CC(C)(C)C)NC(=O)[C@H](CC(=O)O)NC2=O (stereo partly drawn) [I-947, Ac-PL3-Asp-Npg-B5-Asp-TfeGA-Ala-Ala-Phe-Asn-PyrS2-3Thi-BztA-Leu-NH2]
– | 52 | – | 10 (≈ 18.8 µg/mL) | – | 2.49 | – | – | – | CC(=O)N1CCC[C@]12CC=CCCCC1(CCCC=CCCCOC(=O)N3CC[C@@](C(=O)N[C@@H](Cc4ccccc4Cl)C(=O)N[C@@H](Cc4csc5ccccc45)C(=O)N[C@@H](CO)C(N)=O)(C3)NC(=O)[C@H](CO)NC(=O)[C@H](Cc3ccccc3)NC(=O)[C@H](C)NC(=O)[C@H](C)NC(=O)[C@H](CC(N)=O)NC(=O)[C@H](CC(=O)O)NC1=O)NC(=O)[C@H](CC(C)(C)C)NC(=O)[C@H](CC(=O)O)NC2=O (stereo partly drawn) [I-1020, Ac-PL3-Asp-Npg-B5-Asp-Asn-Ala-Ala-Phe-Ser-PyrS2-2C1F-BztA-Ser-NH2]
1470 | 1470 | 1.971 | 47 (≈ 94.1 µg/mL) | – | – | – | – | – | CC(=O)N1CCC[C@]12CC=CCCCC1(CCCC=CCCCOC(=O)N3CC[C@@](C(=O)N[C@@H](Cc4ccsc4)C(=O)N[C@@H](Cc4csc5ccccc45)C(=O)N[C@@H](CCO)C(N)=O)(C3)NC(=O)[C@H](CC(N)=O)NC(=O)[C@H](Cc3ccccc3)NC(=O)[C@H](C)NC(=O)[C@H](C)NC(=O)[C@H](CN(CC(=O)O)CC(F)(F)F)NC(=O)[C@H](CC(=O)O)NC1=O)NC(=O)[C@H](CC(C)(C)C)NC(=O)[C@H](CC(=O)O)NC2=O (stereo partly drawn) [I-951, Ac-PL3-Asp-Npg-B5-Asp-TfeGA-Ala-Ala-Phe-Asn-PyrS2-3Thi-BztA-Hse-NH2]
– | 6 | – | – | – | 2.29 | 48 (≈ 91.8 µg/mL) | – | – | CC(=O)N1CCC[C@]12CC=CCCCC1(CCCC=CCCCOC(=O)N3CC[C@@](C(=O)N[C@@H](Cc4ccccc4Cl)C(=O)N[C@@H](Cc4csc5ccccc45)C(=O)N[C@@H](CO)C(N)=O)(C3)NC(=O)[C@H]([C@@H](C)O)NC(=O)[C@H](Cc3ccccc3)NC(=O)[C@H](C)NC(=O)[C@H](C)NC(=O)[C@H](CC(=O)O)NC(=O)[C@H](CC(=O)O)NC1=O)NC(=O)[C@H](Cc1ccccc1)NC(=O)[C@H](CC(=O)O)NC2=O (stereo partly drawn) [I-1049, Ac-PL3-Asp-Phe-B5-Asp-Asp-Ala-Ala-Phe-Thr-PyrS2-2C1F-BztA-Ser-NH2]
– | 42 | – | 10 (≈ 21 µg/mL) | – | 2.64 | – | – | – | CC[C@H](C)[C@@H]1NC(=O)[C@H](C)NC(=O)[C@H](CN(CC(=O)O)CC(F)(F)F)NC(=O)[C@H](CC(=O)O)NC(=O)C2(CCCC=CCCCOC(=O)N3CC[C@@](C(=O)N[C@@H](Cc4ccccc4Cl)C(=O)N[C@@H](Cc4csc5ccccc45)C(=O)N[C@@H](CCC(N)=O)C(N)=O)(C3)NC(=O)[C@H](CC(N)=O)NC(=O)[C@H](Cc3ccccc3)NC1=O)CCCC=CC[C@]1(CCCN1C(C)=O)C(=O)N[C@@H](CC(=O)O)C(=O)N[C@@H](CC(C)(C)C)C(=O)N2 (stereo partly drawn) [I-1005, Ac-PL3-Asp-Npg-B5-Asp-TfeGA-Ala-Ile-Phe-Asn-PyrS2-2C1F-BztA-Gln-NH2]
– | 56 | – | – | – | 2.61 | 49 (≈ 89.6 µg/mL) | – | – | CC(=O)N1CCC[C@]12CC=CCCCC1(CCCC=CCCCCCC[C@@](C)(C(=O)N[C@@H](Cc3ccccc3)C(=O)N[C@@H](Cc3csc4ccccc34)C(=O)N[C@H](CO)C(N)=O)NC(=O)[C@H](CC(N)=O)NC(=O)[C@H](Cc3ccccc3)NC(=O)[C@H](C)NC(=O)[C@H](C)NC(=O)[C@H](CCC(=O)O)NC(=O)[C@H](CC(=O)O)NC1=O)NC(=O)[C@H](CC(C)C)NC(=O)[C@H](CC(=O)O)NC2=O (stereo partly drawn) [I-756, Ac-PL3-Asp-Leu-B5-Asp-Glu-Ala-Ala-Phe-Asn-S8-Phe-BztA-dSer-NH2]
– | 13 | – | – | – | 1.39 | 21 (≈ 45.9 µg/mL) | – | – | CC(=O)N1CCC[C@]12CC=CCCCC1(CCCC=CCCCOC(=O)N3CC[C@@](C(=O)N[C@@H](Cc4ccsc4)C(=O)N[C@@H](Cc4csc5ccccc45)C(=O)N[C@@H](CCC(N)=O)C(N)=O)(C3)NC(=O)[C@H](CC(N)=O)NC(=O)[C@H](Cc3ccccc3)NC(=O)[C@H](CCCCNC(=O)C3CCN(C4CCN(C)CC4)CC3)NC(=O)[C@H](C)NC(=O)[C@H](CC(=O)O)NC(=O)[C@H](CC(=O)O)NC1=O)NC(=O)[C@H](CC(C)(C)C)NC(=O)[C@H](CC(=O)O)NC2=O (stereo partly drawn) [I-888, Ac-PL3-Asp-Npg-B5-Asp-Asp-Ala-[MeBipipAc]Lys-Phe-Asn-PyrS2-3Thi-BztA-Gln-NH2]
